Consider 1 sequence from US8435947B2, “Endothelial nitric oxide synthase antagonists and uses thereof for inhibiting oxygen toxicity” (Medical College of Georgia Research Institute, Inc., priority 2010, dated 2013).

Assay [1] deals with T1, eNOS-β-actin association (Sus scrofa, UniProt Q6QAQ1).
T1 construct: endogenous in cells; host or cells: porcine pulmonary artery endothelial cells (PAEC)
Put plainly: eNOS-β-actin co-immunoprecipitation in PAEC under normoxia or hyperoxia. The format is cell-based, pigs. The protocol:
(§1) Third- to sixth-passage cells in monolayer culture were maintained in RPMI 1640 medium containing 4% fetal bovine serum and antibiotics (10 units/ml penicillin, 100 μg/ml streptomycin, 20 μg/ml gentamicin, and 2 μg/ml Fungizone) and were used 2 or 3 days after confluence.
(§2) To reduce β-actin availability to eNOS, the β-actin mRNA was silenced using its siRNA as previously reported by us (Kondrikov, D., et al. (2006) Am. J. Physiol. Lung Cell Mol. Physiol. 290, L41-L50).

Assay [2] has as its system pulmonary artery endothelial cells. Description: superoxide formation in endothelial cells (CMH spin trap, EPR). Format: cell-based, pigs. As to conditions: endothelial cells, peptide 20 μm, versus control peptide TAT. The protocol: To measure NO production, endothelial cells were incubated with ABS peptides for 3 h. Then ionomycin (2 μM) was added to the cells. After an additional 30 min, culture medium was collected and ethanol-precipitated to remove proteins. 50 μl of the reaction mix were loaded to the SIEVERS machine for NOx measurement as described above. For superoxide assay, after incubation with ABS peptides, the spin trap CMH was added to the cells. Superoxide from cells was trapped for 1 h, and then cells were scraped and subjected to EPR spectroscopy.

Assay [3] deals with PAEC. Description: peroxynitrite formation in hyperoxic PAEC (APF fluorescence). Format: cell-based, pigs. The conditions noted are these: 95% oxygen 24 h. The protocol:
as §1, §2

Assay [4] has as its system pulmonary artery endothelial cells. Put plainly: endothelial monolayer wound repair. The format is cell-based, pigs. As to conditions: P326TAT 20 μm. The procedure: Pulmonary artery endothelial cells were incubated with ABS peptides for 3 h. Then endothelial monolayer wound repair in the absence and presence of PEG-SOD (100 units/ml) and NOC-18 (10 μm) was measured as previously reported (Su, Y., et al. (2006) FASEB J. 20, 1443-51). Endothelial monolayer wound repair distance was expressed as the width of the wound before treatment subtracted by that after treatment.

A further assay relates to eNOS-Hsp90 interaction. Description: eNOS-Hsp90 co-immunoprecipitation in endothelial cells. The format is cell-based, pigs. As to conditions: versus control peptide TAT-transfected cells. The protocol: To rule out the possibility that the effect of P326TAT on eNOS activity in endothelial cells is caused by its effect on eNOS-Hsp90 interaction, eNOS-Hsp90 association was measured by co-immunoprecipitation using eNOS antibody.

Assay [5] addresses T1, eNOS-β-actin association. Put plainly: eNOS-β-actin co-immunoprecipitation in pulmonary artery endothelial cells. Format: cell-based, pigs. The conditions noted are these: peptide 20 μm, 3 h. The procedure:
Transfection of Endothelial Cells with ABS Peptides Pulmonary artery endothelial cells were incubated with ABS peptides at 20 μm final concentration in MEM medium. […] Cells were then incubated for another 2 h before being used for co-immunoprecipitation and eNOS activity assays.
Determination of eNOS-β-Actin Association, NO Production, and Superoxide Formation in Endothelial Cells eNOS-β-Actin association was evaluated using co-immunoprecipitation.
This TAT tag is a novel method used to facilitate delivery of biologically active proteins or peptides into cells and tissues through the fusion of a protein transduction domain to the protein or peptide of interest (Gustafsson, A. B., et al. (2002) Circulation 106, 735-39). To confirm the efficiency of P326TAT and control peptide TAT to enter endothelial cells, FITC-labeled P326TAT and FITC-labeled control peptide TAT were used. […] Endothelial cells were incubated with P326TAT and control peptide TAT for 3 h, and then eNOS-β-actin association was evaluated by co-immunoprecipitation using anti-eNOS antibody.

The subject of assay [6] is pulmonary artery endothelial cells. Put plainly: NO production in endothelial cells (NOx, SIEVERS). The format is cell-based, pigs. As to conditions: peptide 20 μm 3 h, ionomycin 2 μM. The protocol:
After wild-type and eNOS mutant transfection, ionomycin (2 μm) was added to the cells. After 30 min of incubation, culture medium was collected and ethanol-precipitated to remove proteins. 50 μl of the reaction mix were loaded to the SIEVERS machine for NOx measurement according to standard manufacturer's instructions (Church, J. E., and Fulton, D. (2006) J. Biol. Chem. 281, 1477-88). In some experiments, N^G-nitro-1-arginine methyl ester (L-NAME), a specific eNOS inhibitor, was used to inhibit NO production. […] For superoxide assay, after incubation with ABS peptides, the spin trap CMH was added to the cells. Superoxide from cells was trapped for 1 h, and then cells were scraped and subjected to EPR spectroscopy as previously described (Sud, N., et al. (2008) Am. J. Physiol. Cell Physiol. 294, C1407-18). Protein contents in the cell lysates were determined by Lowry's method.
To measure NO production, endothelial cells were incubated with ABS peptides for 3 h. Then ionomycin (2 μM) was added to the cells. After an additional 30 min, culture medium was collected and ethanol-precipitated to remove proteins. 50 μl of the reaction mix were loaded to the SIEVERS machine for NOx measurement as described above. For superoxide assay, after incubation with ABS peptides, the spin trap CMH was added to the cells. […]

The test system of a further assay is eNOS. Description: eNOS catalytic activity (L-citrulline formation) in hyperoxic PAEC. As to conditions: 95% oxygen 24 h. The format is cell-based, pigs. The procedure: as §1
(§3) The homogenates were centrifuged at 100,000 g for 60 min at 4° C., and the total membrane pellet was resuspended in buffer B (bufferAplus 2.5 mM CaCl2). The resulting suspension was used for determination of eNOS activity by monitoring the formation of L-[^3H]citrulline from L-[^3H]arginine (Su, Y., et al. (2003) Am. J. Physiol. Cell Physiol. 284, C1542-C1549). To determine NO production, thapsigargin (100 nM) was added to the medium of endothelial cells following normoxic or hyperoxic exposure. After 60 min of incubation, culture medium was collected and ethanol-precipitated to remove proteins. 50 μl of the reaction mix were loaded to the SIEVERS machine for NOx (NO2 and NO3) measurement according to standard manufacturer's instruction as previously described (Church, J E., et al. (2006) J. Biol. Chem. 281, 1477-1488). Protein contents in the cell lysates were determined by Lowry's method.
as §2

For assay [7], the system named is PAEC. The conditions noted are these: peptide 20 μM, 95% oxygen 24 h. The procedure: as §1
The test system of assay [8] is PAEC. Put plainly: NO production in hyperoxic PAEC. Format: cell-based, pigs. As to conditions: 95% oxygen 24 h. The protocol:
as §1, §3, §2

As for RKKRRQRRRALGLRWYAL [P326TAT], the “hyperoxia-induced increase in β-actin co-immunoprecipitated with eNOS” value at eNOS-β-actin association [1] (95% oxygen 24 h) is listed as “prevented hyperoxia-induced increase in eNOS-β-actin co-immunoprecipitation”. Besides, the “amount of β-actin co-immunoprecipitated with eNOS” value on eNOS-β-actin association [1] (peptide 20 μM) and on eNOS-β-actin association [5] was “significantly decreased the amount of β-actin co-immunoprecipitated with eNOS” each time. In addition, the superoxide formation entry in [2] is “much higher in P326TAT-transfected endothelial cells than control peptide TAT-transfected endothelial cells”. Moreover, the “hyperoxia-induced increase in peroxynitrite formation” value with PAEC [3] is “prevented hyperoxiainduced increases in NO and peroxynitrite formation”. In addition, in assay [4], the “endothelial monolayer wound repair” value was “exhibited lower capacity of wound repair”. Moreover, in the assay on eNOS-Hsp90 interaction, the “eNOS-Hsp90 interaction (Hsp90 co-precipitated with eNOS)” value is “did not affect eNOS-Hsp90 interaction”. Besides, in assay [6], the NO production entry was “significantly decreased NO production”. Also, the “hyperoxia-induced increase in eNOS activity” value with eNOS was “hyperoxic exposure did not induce an increase in eNOS activity”. For the same sequence, the “tyrosine nitration of proteins at 250, 100, 75, and 60 kDa, hyperoxia versus normoxia” value with PAEC [7] is “comparable between normoxia and hyperoxia”. For the same sequence, in the assay on PAEC [8], the “hyperoxia-induced increase in NO formation” value was “prevented hyperoxiainduced increases in NO and peroxynitrite formation”.
